The test system of data set [1] is high-fat diet (HFD)-induced obesity model mice. Briefly: Hepatic lipid analysis (total lipid, triglyceride, total cholesterol) in HFD mice. The class given is in vivo, C57BL/6J mice. Also on record: Liver TC (Fig. 4c), individual mouse values / Liver TG (Fig. 4d), individual mouse values / Total lipid, liver (Fig. 4e), individual mouse values / Mean Diff., ND vs. treated (Fig. 4c) / Mean Diff., Vehicle vs. treated (Fig. 4c) / Mean (Fig. 4c) / Mean Diff., ND vs. treated (Fig. 4d) / Mean Diff., Vehicle vs. treated (Fig. 4d) / Mean (Fig. 4d) / Mean 2 (group mean), Fig. 4e / Mean Diff., Vehicle vs. treatment, Fig. 4e: unit not given here. As to conditions: for Mean Diff., ND vs. treated (Fig. 4c) / Mean Diff., Vehicle vs. treated (Fig. 4c) / Mean Diff., ND vs. treated (Fig. 4d) / Mean Diff., Vehicle vs. treated (Fig. 4d): Tukey's multiple comparisons test; for Mean (Fig. 4c) / Mean (Fig. 4d) / Mean 2 (group mean), Fig. 4e: group mean, n=10; for Mean 2 (group mean), Fig. 4e: Tukey test details; for Mean Diff., Vehicle vs. treatment, Fig. 4e: vehicle mean 33.43 minus group mean. The protocol: Frozen livers were homogenized with chloroform-methanol (2:1), and the chloroform layer into which the liver lipids were extracted was collected. This extract was used to measure hepatic total lipid, triglyceride (TG), and total cholesterol (TC) contents. […] The total liver lipid content was measured according to the method described by Forch et al.[19].
Fig. 4 Effects of TH analogs on the accumulation of lipids in mice. […] After 3 weeks of injection, serum and liver tissues were collected, and the amount of serum cholesterol (a), serum triglycerides (b), liver cholesterol (c), liver triglycerides (d), and liver total lipids (e) were measured.

For data set [2] the test system is unchanged. Briefly: Oil Red O staining of the liver section. Type of data set: in vivo, C57BL/6J mice. As to conditions: i.p. 1 µmol/kg·day, 3 weeks. The protocol:
20 µm sections were prepared from frozen liver tissues using Cryostat (CM3050 S, Leica). Sections were affixed to silane-coated glass slides, dried at room temperature, and stored at −80 °C until use. Before staining, sections were fixed with 1% PFA/1 × PBS, pH 7.4 (Gibco) for 5 min, immersed in 1 × PBS for 5 min, distilled water for 5 min, and 60% 2-propanol solution for 1 min. Oil Red O staining solution was prepared by mixing 0.36 g of Oil Red O (Sigma) with 120 mL of 2-propanol and 80 mL of distilled water, allowing the solution to stand at room temperature for 1 h, then filtering the solution and leaving it overnight at 37 °C. Sections were immersed in the Oil Red O staining solution at 37 °C for 15 min, rinsed in 60% 2-propanol for 1 min, and in distilled water for 1 min. Sections were counterstained with Meyer’s hematoxylin. […] The area of red-stained fat droplets was quantified using Image J (National Institutes of Health), and the percentage of the stained area in the total image area was calculated. Nine different parts in three consecutive sections per mouse were analyzed.
Fig. 5 Oil Red O staining of the liver section of mice treated with TH analogs. […] After three weeks of injection, liver tissues were collected, frozen sections were prepared, and subjected to Oil Red O staining (a). Stained areas were quantified and normalized to the total image area. […]

Data set [3] is described as follows: Serum ALT (hepatotoxicity). To be noted: for Serum ALT, group mean (Mean 2): n 10, Vehicle mean […]; for serum ALT level vs vehicle: HFD mice, 3 weeks.
Protocol: Male 7-week-old C57BL/6J mice were obtained from a local supplier (Nihon SLC, Shizuoka, Japan). The mice were individually housed in cages (Innocage; ORIENTAL GIKEN) at 23 °C with a 12-h-light–dark cycle starting at 08:00 a.m. […] The injection was prepared by dissolving the compounds in 0.5 N NaOH at a concentration of 100 mM, which was then further diluted with saline to a concentration of either 0.05 or 0.5 mM. The volume of the solution injected was determined based on the body weight of the animal, measured once a week, with 0.05 and 0.5 mM solutions injected at 0.1 and 1 µmol/kg day, respectively. Each group consisted of 10 animals, except for the ND (n = 8) and HFD with saline (vehicle, n = 9) groups. […] In the HFD-treated group, one animal was excluded from the analysis because its body weight was less than two standard deviations below the mean.
The blood samples were left to stand for 1 h at room temperature, then centrifuged at 4 °C for 15 min at 800 × g, and the supernatant was collected. […] Serum ALT levels were measured using Alanine Aminotransferase (ALT or SGPT) Activity Colorimetric/Fluorometric Assay Kit (BioVision) according to the manufacturer’s protocol.
Data are shown as the mean ± SEM (n = 8–10).
Data set [4] in a line: Heart weight (cardiac hypertrophy). To be noted: for Heart weight, group mean (Mean 2): n 10, Vehicle mean 136.7; for heart weight vs vehicle: HFD mice, 3 weeks.
Protocol: Male 7-week-old C57BL/6J mice were obtained from a local supplier (Nihon SLC, Shizuoka, Japan). The mice were individually housed in cages (Innocage; ORIENTAL GIKEN) at 23 °C with a 12-h-light–dark cycle starting at 08:00 a.m. […] The injection was prepared by dissolving the compounds in 0.5 N NaOH at a concentration of 100 mM, which was then further diluted with saline to a concentration of either 0.05 or 0.5 mM. The volume of the solution injected was determined based on the body weight of the animal, measured once a week, with 0.05 and 0.5 mM solutions injected at 0.1 and 1 µmol/kg day, respectively. Each group consisted of 10 animals, except for the ND (n = 8) and HFD with saline (vehicle, n = 9) groups.
After three weeks of daily injections, the body weights of the mice were measured. […] Subsequently, the animals were euthanized using deep isoflurane anesthesia, and the liver, heart, and epididymal adipose tissues were removed from the body. […] Hearts were weighed and fixed in 4% paraformaldehyde for 48 h in a cassette (Sakura Finetek Japan, Tokyo, Japan).
Heart weight was measured to assess heart toxicity. Data are shown as the mean ± SEM (n = 8–10). Significant differences among groups are indicated by asterisks (*P < 0.05, and ****P < 0.0001, one-way ANOVA with Tukey’s post-hoc test) (b).
The test system of data set [5] is left ventricular cardiomyocytes. The data set is described as follows: Trans-nuclear width of left ventricular cardiomyocytes (hematoxylin-eosin staining). As to conditions: for Mean Diff. (Vehicle vs. treated group): Vehicle minus treated, Tukey's multiple comparisons test; for Mean (group mean, Fig. 7c; Tukey's multiple comparisons test details) / Mean Diff. (Vehicle vs. treated group): Fig. 7c.
Protocol: Male 7-week-old C57BL/6J mice were obtained from a local supplier (Nihon SLC, Shizuoka, Japan). The mice were individually housed in cages (Innocage; ORIENTAL GIKEN) at 23 °C with a 12-h-light–dark cycle starting at 08:00 a.m. […] The injection was prepared by dissolving the compounds in 0.5 N NaOH at a concentration of 100 mM, which was then further diluted with saline to a concentration of either 0.05 or 0.5 mM. The volume of the solution injected was determined based on the body weight of the animal, measured once a week, with 0.05 and 0.5 mM solutions injected at 0.1 and 1 µmol/kg day, respectively. Each group consisted of 10 animals, except for the ND (n = 8) and HFD with saline (vehicle, n = 9) groups. In the ND-treated group, one animal died during the experimental period, and one animal was excluded from the analysis after finding tumor-like lesions in the liver. In the HFD-treated group, one animal was excluded from the analysis because its body weight was less than two standard deviations below the mean.
Heart tissues were fixed, dehydrated, and permeated with paraffin using an automatic fixation and encapsulation device (Sakura Finetech, Japan). Paraffin blocks were prepared using Tissue Tech TEC 6 (Sakura Finetech, Japan), and 5 µm-thick transverse transmural sections were prepared with a microtome (Leica). The sections were deparaffinized, rehydrated, and immersed in Meyer’s hematoxylin solution (FUJIFILM Wako Pure Chemical Industries), followed by eosin staining. Sections were dehydrated and mounted using Entellan New (Merck). Sections were observed under a microscope (BX43; Olympus) at × 400 magnification and digital images were captured using cellSens (Olympus). 100 cells were randomly selected from the left ventricle of an individual mouse, and their trans-nuclear widths were measured according to Oláh et al.[23] using Image J (National Institute of Health).
Heart sections were prepared and subjected to hematoxylin–eosin staining. 100 cells were randomly selected from the left ventricle of an individual mouse, their trans-nuclear widths were measured, and average values were calculated. Data are shown as the mean ± SEM (n = 8–10). Significant differences among groups are indicated by asterisks (*P < 0.05, **P < 0.01, ***P < 0.001, and ****P < 0.0001, one-way ANOVA with Tukey’s post-hoc test) (c).

Setting [6] is: HFD mice, i.p., dose not given (0.1 or 1 µmol/kg day), 3 weeks.
Setting [7] is: 0.1 µmol dose group vs. Vehicle.

These results are taken from PMC11303563 (Communications Medicine, 2024).

Values joined by “and” are separate entries in the source; they are usually repeats but may differ in a detail not shown here. Equal entries are not always repeated.

In the case of `Cc1cc(OCC(=O)O)cc(C)c1Cc1ccc(O)c(C(C)C)c1` [GC-1], in data set [1] (0.1 µmol, HFD mice), the “Liver TC (Fig. 4c), individual mouse values” was 1.641 and 1.677 and 1.869 and 2.323 and 2.266 and 1.713 and 1.915 and 2.417 and 2.05 and 2.041; the “Liver TG (Fig. 4d), individual mouse values” was 24.1421 and 24.9345 and 16.7281 and 53.1111 and 43.7729 and 30.8738 and 30.6856 and 28.2214 and 34.8729 and 73.7669; the “Total lipid, liver (Fig. 4e), individual mouse values” is 14.6 and 17.3 and 14 and 22.6 and 24.3 and 18.1 and 18.3 and 16.9 and 17.5 and 26.9; the “Mean (Fig. 4c)” value was 1.991. In addition, in data set [1] (0.1 µmol, HFD mice), the “Mean (Fig. 4d)” value worked out at 36.11. Besides, in data set [1] (1 µmol, HFD mice), the “Liver TC (Fig. 4c), individual mouse values” is 1.533 and 1.874 and 2.437 and 2.533 and 1.78 and 2.383 and 1.435 and 2.474 and 2.396 and 2.183; the “Liver TG (Fig. 4d), individual mouse values” is 36.2948 and 32.7305 and 46.4896 and 42.7911 and 37.2232 and 76.8394 and 41.2151 and 27.0034 and 47.7732 and 49.1408; the “Total lipid, liver (Fig. 4e), individual mouse values” is 17.5 and 17.4 and 20.9 and 22.7 and 22.5 and 28.6 and 18.9 and 18.3 and 21 and 19.5; the “Mean (Fig. 4c)” value turned out to be 2.103. Also, the “Mean (Fig. 4d)” value in data set [1] (1 µmol, HFD mice) was 43.75. In data set [1] (ND minus 0.1 µmol group), the “Mean Diff., ND vs. treated (Fig. 4c)” value was -0.7328 and the “Mean Diff., ND vs. treated (Fig. 4d)” value is -7.809. Besides, in data set [1] (ND minus 1 µmol group), the “Mean Diff., ND vs. treated (Fig. 4c)” value is on record as -0.8444 and the “Mean Diff., ND vs. treated (Fig. 4d)” value is on record as -15.45. In data set [1] (Vehicle minus 0.1 µmol group), the “Mean Diff., Vehicle vs. treated (Fig. 4c)” value is given as -0.4289 and the “Mean Diff., Vehicle vs. treated (Fig. 4d)” value is recorded as 37.27. For the same compound, in data set [1] (Vehicle minus 1 µmol group), the “Mean Diff., Vehicle vs. treated (Fig. 4c)” value was -0.5405 and the “Mean Diff., Vehicle vs. treated (Fig. 4d)” value came out at 29.63. Further, in data set [1] (setting [6]), the “liver total lipids vs vehicle” value is on record as “significantly decreased” and the “liver triglycerides vs vehicle” value is listed as “significantly decreased”. For the same compound, in data set [1] (HFD mice, 0.1 µmol), the “Mean 2 (group mean), Fig. 4e” value is reported as 19.05 and the “Mean Diff., Vehicle vs. treatment, Fig. 4e” value was determined as 14.38. In addition, in data set [1] (HFD mice, 1 µmol), the “Mean 2 (group mean), Fig. 4e” value is recorded as 20.73 and the “Mean Diff., Vehicle vs. treatment, Fig. 4e” value is on record as 12.7.

On to `O=C(O)Cc1cc(C(F)(F)F)c(Cc2ccc(O)c3ccccc23)c(C(F)(F)F)c1` [ZTA-261], for which the “Oil Red O-positive area in liver sections vs vehicle” value in data set [2] is “significantly reduced”. The “Serum ALT (Fig.7a), individual animal values” is 6.621 and 5.838 and 5.844 and 8.207 and 7.718 and 6.528 and 9.431 and 12.922 and 7.155 and 6.407 in data set [3] (0.1 µmol dose group); 16.644 and 8.576 and 9.103 and 8.327 and 7.596 and 9.601 and 12.863 and 9.311 and 13.948 and 12.038 in data set [3] (1 µmol dose group). The “Serum ALT, Tukey's multiple comparisons test, Mean Diff. (Vehicle vs. compound)” value is listed as 3.439 in data set [3] (setting [7]) and 0.3054 in data set [3] (1 µmol dose group vs. Vehicle). The “Serum ALT, group mean (Mean 2)” value in data set [3] (0.1 µmol dose group) was 7.667; in data set [3] (1 µmol dose group) it was 10.8. The “serum ALT level vs vehicle” value in data set [3] (i.p. 0.1 µmol/kg day) and in data set [3] (i.p. 1 µmol/kg day) was “did not show a significant increase” throughout. Further, the “Heart weight (Fig. 7b), individual animal values” in data set [4] (0.1 µmol dose group) was 120.4 and 125.5 and 128.7 and 142.9 and 126.8 and 139.4 and 134.1 and 147.6 and 135.4 and 150.2; in data set [4] (1 µmol dose group), 135 and 135.2 and 126.1 and 150.6 and 150.7 and 152.1 and 152.8 and 145.4 and 154.6 and 138.8. Also, the “Heart weight, Tukey's multiple comparisons test, Mean Diff. (Vehicle vs. compound)” value in data set [4] (setting [7]) was 1.622; in data set [4] (1 µmol dose group vs. Vehicle), -7.408. The “Heart weight, group mean (Mean 2)” value in data set [4] (0.1 µmol dose group) turned out to be 135.1; in data set [4] (1 µmol dose group), 144.1. Also, the “heart weight vs vehicle” value in data set [4] (i.p. 0.1 µmol/kg day) and in data set [4] (i.p. 1 µmol/kg day) was “No such effect” in each case. Also, the “cardiac width (Fig. 7c), individual values” was 11.9852 and 12.1667 and 12.7952 and 11.4055 and 11.1301 and 11.9423 and 11.9907 and 12.4833 and 12.1061 and 13.5905 in data set [5] (0.1 µmol dose group); 12.0147 and 12.4259 and 11.3636 and 12.41 and 12.0185 and 12.8514 and 11.9471 and 13.2394 and 12.2836 and 12.7848 in data set [5] (1 µmol dose group). In addition, the “Mean (group mean, Fig. 7c; Tukey's multiple comparisons test details)” value in data set [5] (HFD mice, dose 0.1 µmol) stood at 12.16; in data set [5] (HFD mice, dose 1 µmol) it was 12.33. In addition, the “transnuclear width of left ventricular cardiomyocytes vs vehicle” value in data set [5] (HFD mice, i.p. 1 µmol/kg day, 3 weeks) is on record as “significantly increased”. The “Mean Diff. (Vehicle vs. treated group)” value in data set [5] (dose 0.1 µmol) was -1.182; in data set [5] (dose 1 µmol), -1.356.
